Results reported in patent US6221386A (priority 1996, dated 2001).
Like-named read-outs stand apart in the source and are kept apart here.

Experiments:
Type in all cases: in vivo, BALB/c mice
Brucella melitensis 16M [1] = conditions: 1 mg/mouse intramuscularly
Brucella melitensis 16M [2] = conditions: 1 mg ciprofloxacin/mouse intramuscularly, 5 × 10^4 CFU
Brucella melitensis 16M [3] = conditions: intramuscular; 1 mg antibiotic/mouse on days 7, 8 and 9; sacrificed day 12

SMILES	B. melitensis 16M counts in spleens 7 days after infection (Brucella melitensis 16M [1]; single dose 1 day after infection (title; head prints before))	B. melitensis 16M counts in spleens 7 days after infection (Brucella melitensis 16M [1]; single dose 2 days after infection (title; head prints before))	B. melitensis 16M counts in spleens 7 days after infection (Brucella melitensis 16M [1]; single dose 3 days after infection (title; head prints before))	B. melitensis 16M counts in spleens 7 days after infection (Brucella melitensis 16M [1]; single dose 7 days after infection (title; head prints before))	B. melitensis 16M counts in spleens 7 days after infection (Brucella melitensis 16M [2]; single dose 1 day before infection)	B. melitensis 16M counts in spleens 7 days after infection (Brucella melitensis 16M [2]; single dose 2 days before infection)	B. melitensis 16M counts in spleens 7 days after infection (Brucella melitensis 16M [2]; single dose 3 days before infection)	B. melitensis 16M counts in spleens 7 days after infection (Brucella melitensis 16M [2]; single dose 7 days before infection)	Spleen counts after antibiotic was given (Brucella melitensis 16M [3])
O=C(O)c1cn(C2CC2)c2cc(N3CCNCC3)c(F)cc2c1=O [Ciprofloxacin, ciprofloxacin]	1.6 ± 0.3 × 10^4	13.0 ± 0.6 × 10^4	3.5 ± 0.9 × 10^4	3.9 ± 1.6 × 10^4	1.5 ± 0.3 × 10^4	2.8 ± 1.0 × 10^4	1.4 ± 0.2 × 10^4	1.9 ± 0.4 × 10^4	1.3 ± 0.4 × 10^4
CN(C)C1C(=O)C(C(N)=O)=C(O)C2(O)C(=O)C3=C(O)c4c(O)cccc4C(C)(O)C3CC12 (stereo not shown) [Tetracycline, tetracycline]									4.8 ± 0.8 × 10^3
